Results on three sequences are retold here after PMC2851732, “Peptide Inhibitors of Dengue-Virus Entry Target a Late-Stage Fusion Intermediate” (PLoS Pathogens, 2010).

Ends that are not written are not given here.

The target in the experiment is T1, DV2 sE(1–395) postfusion trimer (Dengue virus type 2, UniProt P12823).
T1 construct: The sE component (residues 1–395) of the ectodomain is in ribbon representation; purchased Hawai'i Biotech
The experiment can be described thus: Fluorescence polarization binding of FITC-tagged stem peptides to postfusion sE trimer. Details: species or system dengue virus serotype 2. (In general: In fluorescence polarisation assays a small probe gives low polarisation when free and higher when bound to something large.)
In general, IC50 refers to the midpoint of a concentration-inhibition curve. Higher therefore signals weaker potency. AILGDTAWDFGSLGGVFTSIGKA [DV2^413-435] registered an IC50 of 2000 nM. That is a single-digit micromolar value.
Under “AILGDTAWDFGSLGGVFTSIGKALHQVF [DV2^413-440]” stands 250 nM; under AWDFGSLGGVFTSIGKALHQVF [DV2^419-440], 250 nM.
